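Cultured in 96-well plates, cells were exposed to test compound for 48 hours across five concentrations. TGI is the concentration that stops growth completely.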
Key:
Test in all cases: DTP human tumour cell line panel, 48 h
[1] = system: A549 NSCLC
[2] = system: M14 melanoma
[3] = system: HT29 colon
[4] = system: OVCAR-3 ovarian
[5] = system: SNB-75 CNS
[6] = system: HS 578T breast
[7] = system: NCI-H23 lung
[8] = system: SK-MEL-28 melanoma
[9] = system: 786-0 renal
[10] = system: KM12 colon
[11] = system: K-562 leukemia
[12] = system: MCF7 breast
[13] = system: SNB-19 CNS
[14] = system: EKVX NSCLC
[15] = system: HCT-116 colon
[16] = system: OVCAR-8 ovarian
[17] = system: BT-549 breast
[18] = system: MOLT-4 leukemia
[19] = system: SF-295 CNS
[20] = system: HCC-2998 colon
[21] = system: RPMI-8226 leukemia
[22] = system: SK-OV-3 ovarian
[23] = system: NCI/ADR-RES ovarian
[24] = system: SR leukemia
[25] = system: NCI-H226 lung
[26] = system: MDA-MB-231 breast
[27] = system: SF-268 CNS
[28] = system: PC-3 prostate
[29] = system: DU-145 prostate
[30] = system: U251 CNS
[31] = system: CAKI-1 renal
[32] = system: IGROV1 ovarian
[33] = system: UACC-62 melanoma
[34] = system: CCRF-CEM leukemia
[35] = system: TK-10 renal
[36] = system: ACHN renal
[37] = system: T-47D breast
[38] = system: SW-620 colon
[39] = system: HCT-15 colon
[40] = system: MDA-N
[41] = system: NCI-H522 lung
[42] = system: SN12C renal
[43] = system: OVCAR-5 ovarian
[44] = system: COLO 205 colon
[45] = system: SK-MEL-5 melanoma
[46] = system: UO-31 renal
[47] = system: NCI-H460 lung
[48] = system: LOX IMVI melanoma
[49] = system: OVCAR-4 ovarian
[50] = system: MDA-MB-435
[51] = system: HOP-62 NSCLC
[52] = system: UACC-257 melanoma
[53] = system: SK-MEL-2 melanoma
[54] = system: A498 renal
[55] = system: HL-60(TB) leukemia
[56] = system: SF-539 CNS
[57] = system: MALME-3M melanoma
[58] = system: HOP-92 NSCLC

## COc1ccc2c(c1)c1c(n2CCN2CCCCC2)-c2cccc(OC)c2CC1
[1]
  TGI: > 100 µM
[2]
  TGI: 25 µM
[3]
  TGI: 17.6 µM
[4]
  TGI: 34.5 µM
[5]
  TGI: 46.1 µM
[6]
  TGI: 42.4 µM
[7]
  TGI: 32.1 µM
[8]
  TGI: 35 µM
[9]
  TGI: 55.4 µM
[10]
  TGI: 28.8 µM
[11]
  TGI: 31.6 µM
[12]
  TGI: 35.4 µM
[13]
  TGI: 29.7 µM
[14]
  TGI: 42 µM
[15]
  TGI: > 100 µM
[16]
  TGI: 32.3 µM
[17]
  TGI: 41.6 µM
[18]
  TGI: 48 µM
[19]
  TGI: > 100 µM
[20]
  TGI: 36.4 µM
[21]
  TGI: 35.5 µM
[22]
  TGI: > 100 µM
[23]
  TGI: 41.5 µM
[24]
  TGI: 44.7 µM
[25]
  TGI: 24.1 µM
[26]
  TGI: 36.6 µM
[27]
  TGI: 48.8 µM
[28]
  TGI: 35.6 µM
[29]
  TGI: > 100 µM
[30]
  TGI: 29.9 µM
[31]
  TGI: 37.7 µM
[32]
  TGI: 29.8 µM
[33]
  TGI: 32.9 µM
[34]
  TGI: 27.3 µM
[35]
  TGI: 32.8 µM
[36]
  TGI: 43 µM
[37]
  TGI: 47.2 µM
[38]
  TGI: 42.5 µM
[39]
  TGI: 70.1 µM
[40]
  TGI: 35 µM
[41]
  TGI: 18.8 µM
[42]
  TGI: 36.8 µM
[43]
  TGI: 32.8 µM
[44]
  TGI: 39 µM
[45]
  TGI: 45.5 µM
[46]
  TGI: 24.7 µM
[47]
  TGI: 55.9 µM
[48]
  TGI: 38.7 µM
[49]
  TGI: > 100 µM
[50]
  TGI: 31.5 µM
[51]
  TGI: 32.4 µM
[52]
  TGI: 38 µM
[53]
  TGI: 32.3 µM
[54]
  TGI: 49.2 µM

## CCn1c2c(c3ccccc3c1=O)C(=O)c1ccccc1-2
[1]
  TGI: > 100 µM
[2]
  TGI: > 100 µM
[3]
  TGI: > 100 µM
[4]
  TGI: > 100 µM
[5]
  TGI: > 100 µM
[6]
  TGI: > 100 µM
[7]
  TGI: > 100 µM
[8]
  TGI: > 100 µM
[9]
  TGI: > 100 µM
[55]
  TGI: > 100 µM
[10]
  TGI: > 100 µM
[11]
  TGI: > 100 µM
[12]
  TGI: > 100 µM
[13]
  TGI: > 100 µM
[14]
  TGI: > 100 µM
[15]
  TGI: > 100 µM
[16]
  TGI: > 100 µM
[17]
  TGI: > 100 µM
[18]
  TGI: > 100 µM
[56]
  TGI: 39.7 µM
[19]
  TGI: > 100 µM
[21]
  TGI: > 100 µM
[22]
  TGI: > 100 µM
[23]
  TGI: > 100 µM
[25]
  TGI: > 100 µM
[26]
  TGI: > 100 µM
[27]
  TGI: > 100 µM
[28]
  TGI: > 100 µM
[29]
  TGI: > 100 µM
[30]
  TGI: > 100 µM
[31]
  TGI: > 100 µM
[32]
  TGI: > 100 µM
[33]
  TGI: > 100 µM
[34]
  TGI: > 100 µM
[35]
  TGI: > 100 µM
[37]
  TGI: > 100 µM
[38]
  TGI: > 100 µM
[39]
  TGI: > 100 µM
[40]
  TGI: > 100 µM
[41]
  TGI: > 100 µM
[42]
  TGI: > 100 µM
[43]
  TGI: > 100 µM
[44]
  TGI: > 100 µM
[45]
  TGI: > 100 µM
[46]
  TGI: > 100 µM
[57]
  TGI: > 100 µM
[48]
  TGI: > 100 µM
[49]
  TGI: > 100 µM
[50]
  TGI: > 100 µM
[58]
  TGI: > 100 µM
[51]
  TGI: > 100 µM
[52]
  TGI: > 100 µM
[53]
  TGI: > 100 µM
[54]
  TGI: > 100 µM
